Results as given in ChEMBL document CHEMBL5226282, “TLR2 Agonistic Small Molecules: Detailed Structure-Activity Relationship, Applications, and Future Prospects” (J Med Chem, 2021).

Columns and labels:
Toll-like receptor 2 = Toll-like receptor 2 (Homo sapiens, UniProt O60603); assay: Agonist activity at human TLR2 transfected in HEK293 cells; assay type: cell-based
Toll-like receptor 1/2 = Toll-like receptor 1/2 (Homo sapiens, UniProt O60603+Q15399); assay: Agonist activity at TLR2/TLR1 in human THP-1 cells; assay type: cell-based
[1] = molecular target: Toll-like receptor 1/2 (Mus musculus); assay: Agonist activity at TLR2/TLR1 in mouse Macrophage cell line

Toll-like receptor 1/2, sequence (O60603 whole entry): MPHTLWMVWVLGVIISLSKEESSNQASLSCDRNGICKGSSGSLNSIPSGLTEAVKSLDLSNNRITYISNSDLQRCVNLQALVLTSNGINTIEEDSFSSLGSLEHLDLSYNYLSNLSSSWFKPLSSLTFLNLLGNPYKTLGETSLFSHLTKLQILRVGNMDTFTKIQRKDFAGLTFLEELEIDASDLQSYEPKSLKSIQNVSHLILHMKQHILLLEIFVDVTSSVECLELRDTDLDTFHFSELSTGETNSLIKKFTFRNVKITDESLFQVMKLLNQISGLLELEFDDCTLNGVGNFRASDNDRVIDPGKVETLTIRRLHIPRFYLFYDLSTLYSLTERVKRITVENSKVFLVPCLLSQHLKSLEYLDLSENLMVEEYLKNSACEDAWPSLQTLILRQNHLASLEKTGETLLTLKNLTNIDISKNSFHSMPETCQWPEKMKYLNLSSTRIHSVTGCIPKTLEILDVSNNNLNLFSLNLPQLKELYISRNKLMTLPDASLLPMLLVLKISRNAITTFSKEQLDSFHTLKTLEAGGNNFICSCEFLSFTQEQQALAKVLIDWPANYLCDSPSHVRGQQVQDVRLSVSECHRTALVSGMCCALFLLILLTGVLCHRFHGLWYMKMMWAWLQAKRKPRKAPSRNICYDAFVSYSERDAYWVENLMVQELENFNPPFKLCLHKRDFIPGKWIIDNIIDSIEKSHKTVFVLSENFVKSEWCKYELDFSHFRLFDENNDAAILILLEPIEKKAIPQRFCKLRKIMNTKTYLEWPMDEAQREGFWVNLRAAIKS
Toll-like receptor 1/2, sequence (Q15399 whole entry): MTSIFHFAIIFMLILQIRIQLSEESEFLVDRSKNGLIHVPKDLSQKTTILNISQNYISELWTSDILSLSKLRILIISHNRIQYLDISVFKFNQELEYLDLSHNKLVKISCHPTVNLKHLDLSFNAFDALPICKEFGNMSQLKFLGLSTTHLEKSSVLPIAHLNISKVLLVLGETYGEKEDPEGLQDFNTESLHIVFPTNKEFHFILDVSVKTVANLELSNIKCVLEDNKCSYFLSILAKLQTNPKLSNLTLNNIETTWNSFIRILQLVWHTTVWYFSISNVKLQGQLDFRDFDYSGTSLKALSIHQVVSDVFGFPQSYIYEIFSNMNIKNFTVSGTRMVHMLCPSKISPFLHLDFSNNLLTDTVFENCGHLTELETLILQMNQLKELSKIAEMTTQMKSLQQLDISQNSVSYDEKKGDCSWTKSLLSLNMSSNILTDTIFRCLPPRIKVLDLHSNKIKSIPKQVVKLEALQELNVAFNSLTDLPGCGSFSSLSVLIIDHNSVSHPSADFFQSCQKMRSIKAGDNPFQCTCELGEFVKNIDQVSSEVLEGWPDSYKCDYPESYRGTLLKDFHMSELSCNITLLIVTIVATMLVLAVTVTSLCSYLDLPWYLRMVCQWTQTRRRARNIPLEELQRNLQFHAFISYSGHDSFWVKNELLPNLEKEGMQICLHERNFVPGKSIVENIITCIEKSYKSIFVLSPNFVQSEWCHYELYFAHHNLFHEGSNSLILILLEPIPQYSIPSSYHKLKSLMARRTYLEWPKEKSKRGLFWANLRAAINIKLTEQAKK
Toll-like receptor 2, sequence (O60603 whole entry): as the sequence (O60603 whole entry) above

Compound | EC50 (Toll-like receptor 2) [nM] | EC50 (Toll-like receptor 2; hek293) [nM] | EC50 (Toll-like receptor 1/2) [nM] | EC50 [1] [nM]
CCCCCCCCCCCC(=O)OC[C@H](CSC[C@@H](N)C(=O)NCCCCCCN)OC(=O)CCCCCCCCCCC | 1220 | – | – | –
CCCCCCCCCCCC(=O)OC[C@H](CSC[C@@H](N)C(=O)NCCc1cccc(O)c1)OC(=O)CCCCCCCCCCC | > 21000 | – | – | –
CCCCCCCCCCCCCCCC(=O)OCC(CSC[C@@H](N)C(=O)N[C@@H](CO)C(=O)N[C@@H](CC(N)=O)C(=O)N[C@@H](CC(C)C)C(=O)N[C@H](C(=O)N[C@H](C(=O)N[C@@H](C)C(=O)N[C@@H](CO)C(=O)N[C@@H](CCC(=O)O)C(=O)N[C@H](C(=O)N[C@@H](CC(C)C)C(=O)O)[C@@H](C)O)[C@@H](C)CC)[C@@H](C)CC)OC(=O)CCCCCCCCCCCCCCC (stereo partly drawn) | – | 270 | – | –
CCCCCCCCCCCC(=O)OC[C@H](CSC[C@@H](N)C(=O)NCCc1ccc(OCCOCCO)cc1)OC(=O)CCCCCCCCCCC | 15300 | – | – | –
CCCCCCCCCCCC(=O)OC[C@H](CSC[C@@H](N)C(=O)NCCc1ccc(Oc2ccccc2)cc1)OC(=O)CCCCCCCCCCC | 4080 | – | – | –
CCCCCCCCCCCC(=O)OC[C@H](CSC[C@@H](N)C(=O)NCCCOCCCCOCCCCN)OC(=O)CCCCCCCCCCC | 810 | – | – | –
CCCCCCCCCCCC(=O)OC[C@H](CSC[C@@H](N)C(=O)NCCCCCN)OC(=O)CCCCCCCCCCC | 1220 | – | – | –
CCCCCCCCCCCC(=O)OC[C@H](CSC[C@@H](N)C(=O)NCCCOCCOCCOCCCN)OC(=O)CCCCCCCCCCC | 498 | – | – | –
CCCCCCCCCCCC(=O)OC[C@H](CSC[C@@H](N)C(=O)NC(C)CCC(C)C)OC(=O)CCCCCCCCCCC (stereo partly drawn) | 190 | – | – | –
CCCCCCCCCCCC(=O)OC[C@H](CSC[C@@H](N)C(=O)NCCc1ccc(OCCC(C)C)cc1)OC(=O)CCCCCCCCCCC | 8170 | – | – | –
CCCCCCCCCCCC(=O)OC[C@H](CSC[C@@H](N)C(=O)NCCCCCCCCCC(=O)O)OC(=O)CCCCCCCCCCC | 4400 | – | – | –
CCCCCCCCCCCC(=O)OC[C@H](CSC[C@@H](N)C(=O)NCCOCCC(F)(F)P(=O)(O)O)OC(=O)CCCCCCCCCCC | 14 | – | – | –
O=C(NCCc1ccc(F)cc1)[C@@H]1CN(C(=O)[C@H]2CC[C@H](C(=O)N3C[C@@H](C(=O)NCCc4ccc(F)cc4)[C@H](C(=O)NCCc4ccc(F)cc4)C3)CC2)C[C@H]1C(=O)NCCc1ccc(F)cc1 | – | – | > 5000 | > 5000
Cc1cc(C(=O)N2C[C@@H](C(=O)N[C@H]3C[C@@H]3c3ccccc3)[C@H](C(=O)N[C@H]3C[C@@H]3c3ccccc3)C2)c(C)cc1C(=O)N1C[C@@H](C(=O)N[C@H]2C[C@@H]2c2ccccc2)[C@H](C(=O)N[C@H]2C[C@@H]2c2ccccc2)C1 | – | – | > 5000 | > 5000
COC(=O)[C@@H]1CN(C(=O)c2ccc(C(=O)N3C[C@@H](C(=O)N[C@H]4C[C@@H]4c4ccccc4)[C@H](C(=O)N[C@@H]4C[C@H]4c4ccccc4)C3)cc2)C[C@H]1C(=O)N[C@H]1C[C@@H]1c1ccccc1 | – | – | 15 | 640
O=C(N[C@H]1C[C@@H]1c1ccccc1)[C@@H]1CN(C(=O)c2ccc(C(=O)N3C[C@@H](C(=O)N[C@H]4C[C@@H]4c4ccccc4)[C@H](C(=O)N[C@H]4C[C@@H]4c4ccccc4)C3)s2)C[C@H]1C(=O)N[C@H]1C[C@@H]1c1ccccc1 | – | – | 350 | > 5000
Nc1cc(C(=O)N2C[C@@H](C(=O)N[C@H]3C[C@@H]3c3ccccc3)[C@H](C(=O)N[C@H]3C[C@@H]3c3ccccc3)C2)ccc1C(=O)N1C[C@@H](C(=O)N[C@H]2C[C@@H]2c2ccccc2)[C@H](C(=O)N[C@H]2C[C@@H]2c2ccccc2)C1 | – | – | 1 | 140
COC(=O)[C@@H]1CN(C(=O)c2ccc(C(=O)N3C[C@@H](C(=O)N[C@@H]4C[C@H]4c4ccccc4)[C@H](C(=O)OC)C3)cc2)C[C@H]1C(=O)N[C@@H]1C[C@H]1c1ccccc1 | – | – | > 5000 | > 5000
O=C(N[C@H]1C[C@@H]1c1ccccc1)[C@@H]1CN(C(=O)c2c(F)c(F)c(C(=O)N3C[C@@H](C(=O)N[C@H]4C[C@@H]4c4ccccc4)[C@H](C(=O)N[C@H]4C[C@@H]4c4ccccc4)C3)c(F)c2F)C[C@H]1C(=O)N[C@H]1C[C@@H]1c1ccccc1 | – | – | 110 | > 5000
O=C(N[C@H]1C[C@@H]1c1ccccc1)[C@@H]1CN(C(=O)c2cccc3c(C(=O)N4C[C@@H](C(=O)N[C@H]5C[C@@H]5c5ccccc5)[C@H](C(=O)N[C@H]5C[C@@H]5c5ccccc5)C4)cccc23)C[C@H]1C(=O)N[C@H]1C[C@@H]1c1ccccc1 | – | – | > 5000 | > 5000
CCCCCCNC(=O)[C@@H]1CN(C(=O)c2ccc(C(=O)N3C[C@@H](C(=O)N[C@H]4C[C@@H]4c4ccccc4)[C@H](C(=O)N[C@@H]4C[C@H]4c4ccccc4)C3)cc2)C[C@H]1C(=O)N[C@H]1C[C@@H]1c1ccccc1 | – | – | 0.25 | 80

More lines, now with the values ahead:

EC50 (Toll-like receptor 2) [nM] | EC50 (Toll-like receptor 2; hek293) [nM] | EC50 (Toll-like receptor 1/2) [nM] | EC50 [1] [nM] | Compound
5560 | – | – | – | CCCCCCCCCCCC(=O)OC[C@H](CSC[C@@H](N)C(=O)NCCCS(=O)(=O)O)OC(=O)CCCCCCCCCCC
257 | – | – | – | CCCCCCCCCCCC(=O)OC[C@H](CSC[C@@H](N)C(=O)NC(C)CCN(CC)CC)OC(=O)CCCCCCCCCCC (stereo partly drawn)
119 | – | – | – | CCCCCCCCCCCC(=O)OC[C@H](CSC[C@@H](N)C(=O)NCCOCCP(=O)(O)O)OC(=O)CCCCCCCCCCC
71.8 | – | – | – | CCCCCCCCCCCC(=O)OC[C@H](CSC[C@@H](N)C(=O)NC(CC)COC)OC(=O)CCCCCCCCCCC (stereo partly drawn)
38 | – | – | – | CCCCCCCCCCCC(=O)OC[C@H](CSC[C@@H](N)C(=O)NCCOCCOCCOCCOCCP(=O)(O)O)OC(=O)CCCCCCCCCCC
270 | – | – | – | CCCCCCCCCCCC(=O)OC[C@H](CSC[C@@H](N)C(=O)NCCOCCOCCOCCP(=O)(O)O)OC(=O)CCCCCCCCCCC
19.2 | – | – | – | CCCCCCCCCCCC(=O)OC[C@H](CSC[C@@H](N)C(=O)N[C@H](C)COCCCP(=O)(O)O)OC(=O)CCCCCCCCCCC
68 | – | – | – | CCCCCCCCCCCC(=O)OC[C@H](CSC[C@@H](N)C(=O)NC(Cc1ccccc1)c1ccccc1)OC(=O)CCCCCCCCCCC (stereo partly drawn)
– | – | 0.13 | 1.2 | O=C(N[C@H]1C[C@@H]1c1ccc(F)cc1)[C@@H]1CN(C(=O)c2ccc(C(=O)N3C[C@@H](C(=O)N[C@H]4C[C@@H]4c4ccc(F)cc4)[C@H](C(=O)N[C@@H]4C[C@H]4c4ccc(F)cc4)C3)cc2)C[C@H]1C(=O)N[C@H]1C[C@@H]1c1ccc(F)cc1
– | – | > 5000 | > 5000 | O=C(NCCc1ccc(F)cc1)[C@@H]1CN(C(=O)[C@H]2CC[C@@H](C(=O)N3C[C@@H](C(=O)NCCc4ccc(F)cc4)[C@H](C(=O)NCCc4ccc(F)cc4)C3)CC2)C[C@H]1C(=O)NCCc1ccc(F)cc1
– | – | 1.3 | 620 | CCCCCCCCCCCCNC(=O)[C@@H]1CN(C(=O)c2ccc(C(=O)N3C[C@@H](C(=O)N[C@H]4C[C@@H]4c4ccccc4)[C@H](C(=O)N[C@@H]4C[C@H]4c4ccccc4)C3)cc2)C[C@H]1C(=O)NCCCCCCCCCCCC
– | – | > 5 | > 5 | CCCCCCCCCCCCCCNC(=O)[C@@H]1CN(C(=O)c2ccc(C(=O)N3C[C@@H](C(=O)NCCCCCCCCCCCCCC)[C@H](C(=O)NCCCCCCCCCCCCCC)C3)cc2)C[C@H]1C(=O)NCCCCCCCCCCCCCC
– | – | > 5000 | > 5000 | O=C(N[C@H]1C[C@@H]1c1ccccc1)[C@@H]1CN(C(=O)c2ccc(C(=O)N3C[C@@H](C(=O)N[C@H]4C[C@@H]4c4ccccc4)[C@H](C(=O)N[C@H]4C[C@@H]4c4ccccc4)C3)c3ccccc23)C[C@H]1C(=O)N[C@H]1C[C@@H]1c1ccccc1
– | – | 20 | > 5000 | O=C(N[C@H]1C[C@@H]1c1ccccc1)[C@@H]1CN(C(=O)c2ccc(C(=O)N3C[C@@H](C(=O)N[C@H]4C[C@@H]4c4ccccc4)[C@H](C(=O)N[C@H]4C[C@@H]4c4ccccc4)C3)c(O)c2)C[C@H]1C(=O)N[C@H]1C[C@@H]1c1ccccc1
– | – | 20 | > 5000 | O=C(N[C@H]1C[C@@H]1c1ccccc1)[C@@H]1CN(C(=O)c2cc(O)c(C(=O)N3C[C@@H](C(=O)N[C@H]4C[C@@H]4c4ccccc4)[C@H](C(=O)N[C@H]4C[C@@H]4c4ccccc4)C3)cc2O)C[C@H]1C(=O)N[C@H]1C[C@@H]1c1ccccc1
– | – | > 5000 | > 5000 | O=C(N[C@H]1C[C@@H]1c1ccccc1)[C@@H]1CN(C(=O)Cc2ccc(CC(=O)N3C[C@@H](C(=O)N[C@H]4C[C@@H]4c4ccccc4)[C@H](C(=O)N[C@H]4C[C@@H]4c4ccccc4)C3)cc2)C[C@H]1C(=O)N[C@H]1C[C@@H]1c1ccccc1
– | – | 360 | > 5000 | O=C(N[C@H]1C[C@@H]1c1ccccc1)[C@@H]1CN(C(=O)c2cc(Cl)c(C(=O)N3C[C@@H](C(=O)N[C@H]4C[C@@H]4c4ccccc4)[C@H](C(=O)N[C@H]4C[C@@H]4c4ccccc4)C3)cc2Cl)C[C@H]1C(=O)N[C@H]1C[C@@H]1c1ccccc1
– | – | > 5000 | > 5000 | O=C(NCCc1ccc(F)cc1)[C@@H]1CN(C(=O)c2ccc3cc(C(=O)N4C[C@@H](C(=O)NCCc5ccc(F)cc5)[C@H](C(=O)NCCc5ccc(F)cc5)C4)ccc3c2)C[C@H]1C(=O)NCCc1ccc(F)cc1
– | – | > 5000 | > 5000 | O=C(N[C@H]1C[C@@H]1c1ccccc1)[C@@H]1CN(C(=O)/C=C/C(=O)N2C[C@@H](C(=O)N[C@H]3C[C@@H]3c3ccccc3)[C@H](C(=O)N[C@H]3C[C@@H]3c3ccccc3)C2)C[C@H]1C(=O)N[C@H]1C[C@@H]1c1ccccc1
– | – | 360 | > 5000 | Cc1ccc([C@H]2C[C@@H]2NC(=O)[C@@H]2CN(C(=O)c3ccc(C(=O)N4C[C@@H](C(=O)N[C@H]5C[C@@H]5c5ccc(C)cc5)[C@H](C(=O)N[C@@H]5C[C@H]5c5ccc(C)cc5)C4)cc3)C[C@H]2C(=O)N[C@H]2C[C@@H]2c2ccc(C)cc2)cc1
– | – | > 5000 | > 5000 | O=C(NCCc1ccc(F)cc1)[C@@H]1CN(C(=O)c2ccc(-c3ccc(C(=O)N4C[C@@H](C(=O)NCCc5ccc(F)cc5)[C@H](C(=O)NCCc5ccc(F)cc5)C4)cc3)cc2)C[C@H]1C(=O)NCCc1ccc(F)cc1
– | – | > 5000 | > 5000 | O=C(N[C@H]1C[C@@H]1c1ccccc1)[C@@H]1CN(C(=O)C#CC(=O)N2C[C@@H](C(=O)N[C@H]3C[C@@H]3c3ccccc3)[C@H](C(=O)N[C@H]3C[C@@H]3c3ccccc3)C2)C[C@H]1C(=O)N[C@H]1C[C@@H]1c1ccccc1
– | – | 15 | 750 | C#CCNc1cc(C(=O)N2C[C@@H](C(=O)N[C@H]3C[C@@H]3c3ccccc3)[C@H](C(=O)N[C@H]3C[C@@H]3c3ccccc3)C2)ccc1C(=O)N1C[C@@H](C(=O)N[C@H]2C[C@@H]2c2ccccc2)[C@H](C(=O)N[C@H]2C[C@@H]2c2ccccc2)C1
